Reference: patent publication US6852713B2, “Lactam derivatives and methods of their use” (Adolor Corporation, priority 2003, dated 2005)

Key:
[1] = tested on: acetic acid-induced writhing; assay: Acetic acid-induced writhing; type: in vivo, male CF-1 mice; conditions: Mus musculus, po; administered orally; read-out: ED50, block of acetic acid-induced writhing
Protocol: Injection of acetic acid into the peritoneal cavity is used as the noxious stimulus, and the number of writhing responses that occur in response to acetic acid are counted in order to quantif the response to pain.
The writhing assay is adapted from the procedure originally described by Taber et al. (J. Pharmacol. Exp. Ther. 169: 29-38,1986), using male CF-1 mice weighing 20-25 g. Animals are treated with various doses of drugs prior to the administration of an i.p. injection of 0.6% acetic acid solution. Mice are then placed into observation chambers and the number of writhing responses, as defined by a full hind limb extension and retraction, are recorded.
The mean number of writhing responses is calculated for vehicle-treated control mice, and the percent inhibition (% I) of writhing is calculated for each mouse that is treated with drug using the following formula: % I=100×(mean control writhing responses−individual test responses)(mean control writhing responses) (f) Hyperalgesia Induced by Tape Stripping

[2] = biological target: T1, cloned human a receptors (Homo sapiens, UniProt P41145); assay: Stimulation of [35S]GTPγS binding to membranes (agonist potency); type: biochemical
T1 construct: expressed in transfected cells
Protocol: The potencies of the agonists were assessed by their abilities to stimulate [^35S]GTPγS binding to membranes containing the cloned human a receptors.
To determine the EC50 value, which was the concentration to give half-maximal stimulation of [^35S]GTPγS binding, the amount of [^35S]GTPγS bound in the presence of various concentrations of agonists was measured. The EC50 value was then determined.

[3] = biological target: T2, cloned human κ opioid receptor (Homo sapiens, UniProt P41145); assay: In vitro binding assay, inhibition of [3H]diprenorphine binding, kappa; conditions: read-out: Ki against the human kappa receptor
T2 construct: expressed in transfected cells
Protocol: (§1) The potencies of the compounds of the invention were determined by testing the ability of a range of concentrations of each compound to inhibit the binding of the non-selective opioid antagonist, [^3H]diprenorphine, to the cloned human μ, κ, and δ opioid receptors, expressed in separate cell lines. IC50 values were obtained by nonlinear analysis of the data using GraphPad Prism version 3.00 for Windows (GraphPad Software, San Diego). Ki values were obtained by Cheng-Prusoff corrections of IC50 values.
(§2) The receptor binding method was a modification of the method of K. Raynor et al. (Mol. Pharmnacol. 1994, 45, 330-334). […] The filters were rinsed 4 times with 1 mL of cold 50 mM Tris HCl, pH 7.8 and radioactivity remaining on the filters determined by scintillation spectroscopy. Nonspecific binding was determined by the minimum values of the titration curves and was confirmed by separate assay wells containing 10 μM naloxone. Ki values were determined by Cheng-Prusoff corrections of IC50 values derived from nonlinear regression fits of 12 point titration curves using GraphPad Prism® version 3.00 for Windows (GraphPad Software, San Diego, Calif.).
(§3) To determine the equilibrium dissociation constant for the inhibitors (Ki), radioligand bound (cpm) in the presence of various concentrations of test compounds was measured. […]

[4] = tested on: formalin-induced flinching; assay: In vivo formalin-induced nociception assay; parameters: species or system male Sprague-Dawley rats; conditions: dose of 100 μg, i.paw
Text: Administration of formalin into the paw results in a localized inflammation and a pain response that is moderate in intensity and continuous in duration. Unlike many other assays of nociception, the formalin assay measures tonic pain that is a result of tissue injury, and therefore is a model which is more relevant to clinical pain states in humans (see Tjolsen et al., Pain 51: 5-17, 1992). In the rat the response to formalin-induced pain consists of spontaneous flinching behavior, characterized by paw lifting and paw shaking, and a rapid vibration of the paw after drawing it under the body. […] The early or acute phase lasts from 0-5 minutes post-formalin and is followed by a quiescent period lasting approximately 15 minutes. The tonic phase occurs from 20-35 minutes following formalin injection and is the interval where the number of flinching responses is maximal. […]
Inflammation is induced by subcutaneous injection of […] of a 5% formalin solution into the dorsal surface of the right hind paw of male Sprague-Dawley rats weighing 70-90 g. Injections of drug are given into the dorsal surface of the paw prior to formalin injection, and flinching behavior is quantitated by counting the number of responses that occur during the tonic phase of pain, lasting from 20-35 min after formalin injection. […]

[5] = biological target: T3, cloned human μ opioid receptor (Homo sapiens, UniProt P35372); assay: In vitro binding assay, inhibition of [3H]diprenorphine binding, mu; conditions: kappa versus μ
T3 construct: expressed in transfected cells
Protocol: as §1, §2, §3

[6] = biological target: T4, cloned human δ opioid receptor (Homo sapiens, UniProt P41143); assay: In vitro binding assay, inhibition of [3H]diprenorphine binding, delta; conditions: kappa versus δ
T4 construct: expressed in transfected cells
Protocol: as §1, §2, §3

T4 sequence (P41143 whole entry): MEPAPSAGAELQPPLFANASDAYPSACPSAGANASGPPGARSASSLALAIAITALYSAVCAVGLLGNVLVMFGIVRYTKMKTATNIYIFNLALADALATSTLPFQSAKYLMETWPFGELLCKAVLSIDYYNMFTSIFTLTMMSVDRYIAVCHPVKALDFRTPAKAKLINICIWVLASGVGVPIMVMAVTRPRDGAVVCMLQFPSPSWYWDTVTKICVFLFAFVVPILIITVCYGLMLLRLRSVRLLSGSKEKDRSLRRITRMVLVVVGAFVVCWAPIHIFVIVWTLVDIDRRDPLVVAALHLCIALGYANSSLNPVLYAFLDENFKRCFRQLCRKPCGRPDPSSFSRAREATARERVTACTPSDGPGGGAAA
T3 sequence (P35372 whole entry): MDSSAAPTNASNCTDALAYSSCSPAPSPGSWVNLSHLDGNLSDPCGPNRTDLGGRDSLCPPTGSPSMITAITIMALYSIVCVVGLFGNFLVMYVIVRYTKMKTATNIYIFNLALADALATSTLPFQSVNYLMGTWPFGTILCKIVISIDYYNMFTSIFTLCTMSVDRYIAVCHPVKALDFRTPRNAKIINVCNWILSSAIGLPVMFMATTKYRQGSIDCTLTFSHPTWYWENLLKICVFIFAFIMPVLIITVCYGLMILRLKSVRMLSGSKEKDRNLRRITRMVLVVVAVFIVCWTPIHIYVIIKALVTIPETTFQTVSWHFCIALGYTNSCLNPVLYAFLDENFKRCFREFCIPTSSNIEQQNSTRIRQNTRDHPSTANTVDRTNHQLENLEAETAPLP
T2 sequence (P41145 whole entry): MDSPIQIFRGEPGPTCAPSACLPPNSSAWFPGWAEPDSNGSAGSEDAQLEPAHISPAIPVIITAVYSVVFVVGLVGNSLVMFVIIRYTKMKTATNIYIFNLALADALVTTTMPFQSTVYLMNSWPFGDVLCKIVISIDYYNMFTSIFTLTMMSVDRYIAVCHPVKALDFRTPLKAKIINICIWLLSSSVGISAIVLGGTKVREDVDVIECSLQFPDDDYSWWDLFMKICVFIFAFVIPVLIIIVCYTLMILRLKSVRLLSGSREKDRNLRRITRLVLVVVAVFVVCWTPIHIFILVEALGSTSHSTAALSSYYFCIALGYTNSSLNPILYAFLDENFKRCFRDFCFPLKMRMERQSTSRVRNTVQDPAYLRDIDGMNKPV
T1 sequence (P41145 whole entry): as above

For `O=C1C(c2ccc(Cl)c(Cl)c2)CC=CCN1[C@H](CN1CCCC1)c1ccccc1` (stereo partly drawn) [Example 9, 3-(3,4-Dichloro-phenyl)-1-(1-(S)-phenyl-2-pyrrolidin-1-yl-ethyl)-1,3,4,7-tetrahydro-azepin-2-one], the ED50 [1] was < 30 mg/kg, the EC50 [2] was 2.5 nM and the Ki [3] was 1 nM. The “% A (percent antagonism of formalin-induced flinching)” value [4] was > 80%, the “selectivity versus the human μ receptor” value [5] was > 100 × and the “selectivity versus the human δ receptor” value [6] was > 100 ×.
